Measurements as given in article PMC8766756, “Insights on Cancer Cell Inhibition, Subcellular Activities, and Kinase Profile of Phenylacetamides Pending 1H-Imidazol-5-One Variants” (Frontiers in Pharmacology, 2022).

Experiments:
HL60 cells [1] = test: Apoptosis detection by caspase-3 activity; type: cell-based, human; conditions: HL60, 1 μM, 48 h
Excerpt: The activated caspase-3 is a marker for cell apoptosis that proteolytically cleaves and activates other caspases and intracellular targets ([Patel et al., 1996]). Caspase-3, which is activated during the early stages of apoptosis, could be measured in HL60 cells undergoing apoptosis by using fluorescein isothiocyanate (FITC)–conjugated active caspase-3 antibody.
FITC conjugated active caspase-3 antibody (BD biosciences, USA) was used to detect the active form of caspase-3 in the cells undergoing apoptosis. Cells were plated in a 6-well culture plate at a density of 0.5 × 10^6 cells and harvested after 24 and 48 h of incubation with the test compound. The collected cells were washed twice with cold 1X PBS and then resuspended in 0.5 ml of BD Cytofix/Cytoperm solution followed by a 20-min incubation on ice. After incubation, the cells were washed twice in a BD Perm/Wash buffer (1X) and were labelled with 5 µL of FITC rabbit anti-caspase-3 antibodies. The labelled cells were washed again with wash buffer and resuspended in 0.5 ml of buffer and analyzed by acquiring a minimum of 5,000 events on the FACSAria III cell analyzer and sorter.

[2] = target: T1, human cytochrome P450 2D6 (Homo sapiens, UniProt P10635); test: Inhibition assay of human CYP450 enzymes; type: in vitro ADME; conditions: fluorescent substrate
T1 construct: purchased Fisher Scientific, Waltham, MA; host or cells: insect cells (Supersomes)
T1 sequence (P10635 whole entry): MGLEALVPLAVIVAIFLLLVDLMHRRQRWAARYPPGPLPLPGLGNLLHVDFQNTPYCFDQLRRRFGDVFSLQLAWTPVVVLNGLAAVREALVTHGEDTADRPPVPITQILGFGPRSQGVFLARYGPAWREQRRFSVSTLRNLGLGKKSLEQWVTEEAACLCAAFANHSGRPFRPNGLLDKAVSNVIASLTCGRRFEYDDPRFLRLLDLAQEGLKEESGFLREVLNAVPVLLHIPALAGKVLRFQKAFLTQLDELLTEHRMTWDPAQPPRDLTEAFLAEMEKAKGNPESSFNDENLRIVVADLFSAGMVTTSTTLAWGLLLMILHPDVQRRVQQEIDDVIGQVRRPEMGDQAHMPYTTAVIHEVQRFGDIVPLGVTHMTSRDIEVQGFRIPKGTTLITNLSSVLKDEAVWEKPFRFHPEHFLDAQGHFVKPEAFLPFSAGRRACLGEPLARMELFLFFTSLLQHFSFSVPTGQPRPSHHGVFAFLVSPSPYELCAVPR
Procedure: (§1) KIM-161 was assessed for its ability to inhibit the three major human CYP450 enzymes: 3A4, 2D6, and 2C9. The assays were run in triplicate. The expressed enzymes in insect Supersomes (Fisher Scientific, Waltham, MA) were used to minimize nonspecific binding and membrane partitioning issues ([McMasters et al., 2007]). The 3A4 assay uses testosterone as a substrate, and the analysis was performed by LC/MS/MS on a Waters Xevo TQ instrument as described above, using positive electrospray ionization. The assay acceptance criterion was 20% for all standards and 25% for the LLOQ. The 2D6 and 2C9 assays use fluorescent substrates (3-[2-(N,N-diethylamino)ethyl]-7-methoxy-4-methylcoumarin for 2D6; 7-methoxy-4-(trifluromethyl)coumarin for 2C9) and were analyzed on an Envision plate reader. GraphPad® Prism v.5.04 was used for nonlinear fitting of data to generate IC50 values.

[3] = target: T2, human cytochrome P450 2C9 (Homo sapiens, UniProt P11712); test: Inhibition assay of human CYP450 enzymes; type: in vitro ADME; conditions: fluorescent substrate
T2 construct: purchased Fisher Scientific, Waltham, MA; host or cells: insect cells (Supersomes)
T2 sequence (P11712 whole entry): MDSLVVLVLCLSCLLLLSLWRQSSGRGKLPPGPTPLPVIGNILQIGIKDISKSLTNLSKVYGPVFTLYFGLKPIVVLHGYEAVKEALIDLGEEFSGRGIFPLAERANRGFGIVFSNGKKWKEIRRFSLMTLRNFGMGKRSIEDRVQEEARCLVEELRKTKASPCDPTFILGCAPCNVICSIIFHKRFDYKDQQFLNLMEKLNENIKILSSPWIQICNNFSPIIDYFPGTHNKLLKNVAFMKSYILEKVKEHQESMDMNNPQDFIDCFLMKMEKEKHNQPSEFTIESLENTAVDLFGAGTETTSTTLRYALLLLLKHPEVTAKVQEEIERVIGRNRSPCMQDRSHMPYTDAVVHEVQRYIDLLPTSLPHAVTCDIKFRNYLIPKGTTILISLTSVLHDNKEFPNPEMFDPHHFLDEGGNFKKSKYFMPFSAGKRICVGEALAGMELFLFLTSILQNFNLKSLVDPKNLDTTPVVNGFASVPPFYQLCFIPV
Procedure: as §1

[4] = target: T3, human cytochrome P450 3A4 (Homo sapiens, UniProt P08684); test: Inhibition assay of human CYP450 enzymes; type: in vitro ADME; conditions: testosterone substrate
T3 construct: purchased Fisher Scientific, Waltham, MA; host or cells: insect cells (Supersomes)
T3 sequence (P08684 whole entry): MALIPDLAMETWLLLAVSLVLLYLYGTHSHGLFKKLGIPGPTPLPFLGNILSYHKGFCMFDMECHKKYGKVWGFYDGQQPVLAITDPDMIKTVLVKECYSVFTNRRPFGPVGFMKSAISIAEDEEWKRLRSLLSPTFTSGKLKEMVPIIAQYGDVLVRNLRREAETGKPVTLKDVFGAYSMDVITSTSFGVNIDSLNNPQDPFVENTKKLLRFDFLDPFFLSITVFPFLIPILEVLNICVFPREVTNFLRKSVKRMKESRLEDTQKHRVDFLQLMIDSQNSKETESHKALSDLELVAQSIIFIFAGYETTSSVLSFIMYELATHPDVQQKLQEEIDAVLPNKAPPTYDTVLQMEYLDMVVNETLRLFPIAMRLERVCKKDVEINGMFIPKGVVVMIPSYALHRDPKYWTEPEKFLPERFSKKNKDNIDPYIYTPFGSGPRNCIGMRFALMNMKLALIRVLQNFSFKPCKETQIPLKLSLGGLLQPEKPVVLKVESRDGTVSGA
Procedure: as §1

bovine brain tubulin = test: Tubulin polymerization assay (cell-free); type: biochemical; conditions: 10 and 30 µM, compared with KX2-391 (10 µM)
Procedure: KX2-391 (KX-01), the prototype of KIM-161, is a known powerful tubulin polymerization inhibitor. Consequently, we investigated its effect on tubulin polymerization using a cell-free assay that also included paclitaxel as another positive reference that affects tubulin function through stabilization of tubulin polymers (Figure 9).
FIGURE 9 Tubulin polymerization assay for KIM-161 at 10 and 30 µM compared to paclitaxel (10 µM) and KX2-391 (10 µM) as positive controls. The negative control (vehicle) contained DMSO (1% v/v). The effect on the tubulin assembly was monitored turbidometrically at 340 nm every 30 s for 60 min at 37°C. Fold inhibition of tubulin polymerization was calculated using the V max value for each reaction. The results represent the mean for three separate experiments.
The assembly of purified bovine tubulin was monitored using a kit BK006 purchased from Cytoskeleton Inc. (Denver, CO, USA). The assay was carried out in accordance with the manufacturer's instructions in the tubulin polymerization assay kit manual using the standard assay conditions. The values reported represent the average values from two independent assays. […] Therefore, tubulin assembly was monitored turbidimetrically at 340 nm at 37°C in a Spectramax 340 PC spectrophotometer (Molecular Devices, Sunnyvale, CA, USA). The absorbance was measured at 30-s intervals for 60 min.

HL60 cells [5] = test: Cell cycle analysis by flow cytometry; type: cell-based, human; conditions: HL60, 1 µM, 48 h, vs untreated control
Procedure: The cell cycle analysis of the HL60 cells after treatment was performed with 1 µM of KIM-161 by using flow cytometry.
The cells (3.5 × 10^5/well) were incubated with 1 µM 4c (KIM-161) at 37°C for 48 h. Subsequently, the cells were collected and washed twice with ice-cold PBS (1X). The washed cells were fixed on ice for 20 min using a fixation buffer containing paraformaldehyde. Hoechst 33342 (10 μg/ml; Thermo Fisher Scientific, Inc.) was used for staining. The cells were then incubated in the dark for 30 min on ice. A minimum total of 20,000 events were acquired using a BD FACSAria III flow cytometer. Flowlogic version 7.2.1 software (Inivai Technologies, Victoria, Australia) was used to obtain the percentages of cells in the G1, S, and G2/M phases in the singlet-gated population.

COc1ccc(/C=C2\N=C(C)N(c3ccc(CC(=O)NCc4ccccc4)cc3)C2=O)cc1 [Compound 4c, (Z)-N-Benzyl-2-(4-(4-(4-methoxybenzylidene)-2-methyl-5-oxo-4,5-dihydro-1H-imidazol-1-yl)phenyl)acetamide]
Casp3 active %P (HL60 cells [1]): 49.94%
increase in the cells undergoing apoptosis (active caspase-3) vs untreated (HL60 cells [1]): ~10 fold
IC50 [2]: ≥ 10 µM
IC50 [3]: ≥ 10 µM
IC50 [4]: ≥ 10 µM
tubulin polymerization inhibition (bovine brain tubulin): much weaker tubulin polymerization inhibition than KX2-391
Cell cycle distribution: G0/G1 phase (HL60 cells [5]): decrease in the G0/G1 phase
Cell cycle distribution: G2/M phase (HL60 cells [5]): increased the population of cells in the G2/M phase
Cell cycle distribution: PreG phase (HL60 cells [5]): accumulate in PreG phase
Cell cycle distribution: S phase (HL60 cells [5]): no difference is seen in cell population in the S phase
